Laboratory results from patent US11053234B2 (GlaxoSmithKline Intellectual Property Development Limited, priority 2016, dated 2021).

Target: T1, haematopoietic prostaglandin D synthase (H-PGDS) (Homo sapiens, UniProt O60760)
T1 construct: Full length human H-PGDS cDNA (Invitrogen Ultimate ORF 10H13026) was amplified by PCR; 6-His (N); TEV protease cleavage site (N); made in house; host or cells: E. coli BL21 (DE3*), vector pET22b+
Experiment: H-PGDS RapidFire high throughput mass spectrometry assay (conversion of PGH2 to PGD2)
Assay type: biochemical
Conditions: 10 nM H-PGDS, PGH2 formed in situ by COX-2 from arachidonic acid
Procedure, shortened: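 RapidFire SPE–MS read-out calculated percent conversion from relative PGD2 and PGF2α (substrate surrogate) levels. Recombinant full-length human H-PGDS (His-tag, E. coli) turned over PGH2, produced in situ at ˜10 μM by human COX-2 (FLAG-tag, Sf9 cells) acting on arachidonic acid.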

T1 sequence (O60760 whole entry): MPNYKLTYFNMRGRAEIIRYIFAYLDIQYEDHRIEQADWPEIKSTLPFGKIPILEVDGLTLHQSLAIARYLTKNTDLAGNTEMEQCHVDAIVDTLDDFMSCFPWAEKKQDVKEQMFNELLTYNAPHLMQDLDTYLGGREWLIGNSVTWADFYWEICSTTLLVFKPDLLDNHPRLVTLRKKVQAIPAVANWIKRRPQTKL

Structure (SMILES)	Potency Range (mean pIC50)
CS(=O)(=O)C1CCC(NC(=O)N2CC(Oc3cccc4scnc34)C2)CC1 (centres unmarked) [Example 98, 3-(Benzo[d]thiazol-4-yloxy)-N-(4-(methylsulfonyl)cyclohexyl)azetidine-1-carboxamide]	** (pIC50 = 6.0-7.0)

Same assay, conditions: 10 nM H-PGDS, PGH2 formed in situ by COX-2 from arachidonic acid; read-out: Potency Range (mean pIC50) (converted)

Structure (SMILES)	IC50 [nM]
CC(C)(O)[C@H]1CC[C@H](NC(=O)[C@H]2C[C@H](Oc3ccccc3OC(F)(F)F)C2)CC1 [Example 259, (trans)-N-((trans)-4-(2-Hydroxypropan-2-yl)cyclohexyl)-3-(2-(trifluoromethoxy)phenoxy)cyclobutanecarboxamide]	100 to 1000
CC(O)(c1csc(NC(=O)[C@H]2C[C@H](Oc3cccc4cccnc34)C2)n1)C(F)(F)F (mixture of isomers) [Example 187, Racemic (trans)-3-(Quinolin-8-yloxy)-N-(4-(1,1,1-trifluoro-2-hydroxypropan-2-yl)thiazol-2-yl)cyclobutanecarboxamide]	10 to 79.4
COC(=O)C12CCC(NC(=O)N3CC(Oc4cccc5scnc45)C3)(CC1)CC2 [Example 327, Methyl 4-(3-(benzo[d]thiazol-4-yloxy)azetidine-1-carboxamido)bicyclo[2.2.2]octane-1-carboxylate]	10 to 79.4
CCOC(=O)NC12CC(NC(=O)[C@H]3C[C@H](Oc4cccc5scnc45)C3)(C1)C2 [Example 319, Ethyl (3-((trans)-3-(benzo[d]thiazol-4-yloxy)cyclobutane-1-carboxamido)bicyclo[1.1.1]pentan-1-yl)carbamate]	10 to 79.4
C[C@]1(O)CC[C@H](NC(=O)[C@H]2C[C@H](Oc3cc(F)ccc3OC(F)F)C2)CC1 [Example 29, (trans)-3-(2-(Difluoromethoxy)-5-fluorophenoxy)-N-((trans)-4-hydroxy-4-methylcyclohexyl)cyclobutanecarboxamide]	10 to 79.4
O=C(Nc1ccn[nH]1)[C@H]1C[C@H](Oc2cccc3scnc23)C1 [Example 301]	100 to 1000
Cc1ccc(N2CC(NC(=O)[C@H]3C[C@H](Oc4cc(F)cc5scnc45)C3)C2)nc1 [Example 231, (trans)-3-((6-Fluorobenzo[d]thiazol-4-yl)oxy)-N-(1-(5-methylpyridin-2-yl)azetidin-3-yl)cyclobutanecarboxamide]	10 to 79.4
O=C(N[C@H]1CC[C@H](OCC(O)C2CC2)CC1)[C@H]1C[C@H](Oc2cc(F)ccc2OC(F)F)C1 (mixture of isomers) [Example 9, Racemic (trans)-N-((trans)-4-(2-Cyclopropyl-2-hydroxyethoxy)cyclohexyl)-3-(2-(difluoromethoxy)-5-fluorophenoxy)cyclobutanecarboxamide]	10 to 79.4
CCOC(=O)c1coc(NC(=O)[C@H]2C[C@H](Oc3cccc4cccnc34)C2)n1 [Example 171, ethyl 2-((trans)-3-(quinolin-8-yloxy)cyclobutanecarboxamido)oxazole-4-carboxylate]	10 to 79.4
CCOC(=O)c1cnc(N2CC(NC(=O)[C@H]3C[C@H](Oc4cccc5scnc45)C3)C2)o1 [Example 48, Ethyl 2-(3-((trans)-3-(benzo[d]thiazol-4-yloxy)cyclobutanecarboxamido)azetidin-1-yl)oxazole-5-carboxylate]	100 to 1000
COc1ccc(F)cc1O[C@H]1C[C@H](C(=O)N[C@H]2CC[C@H](N3CCOCC3=O)CC2)C1 [Example 151, (trans)-3-(5-Fluoro-2-methoxyphenoxy)-N-((trans)-4-(3-oxomorpholino)cyclohexyl)cyclobutanecarboxamide]	100 to 1000
O=C(Nc1ccnc(C2CC2)n1)N1CC(Oc2cccc3scnc23)C1 [Example 312, 3-(Benzo[d]thiazol-4-yloxy)-N-(2-cyclopropylpyrimidin-4-yl)azetidine-1-carboxamide]	10 to 79.4
O=C(NC1CN(c2ncccn2)C1)[C@H]1C[C@H](Oc2cc(F)cc3scnc23)C1 [Example 133, (trans)-3-((6-Fluorobenzo[d]thiazol-4-yl)oxy)-N-(1-(pyrimidin-2-yl)azetidin-3-yl)cyclobutanecarboxamide]	10 to 79.4
O=C(NC1CN(c2ncc(F)cn2)C1)[C@H]1C[C@H](Oc2cc(F)ccc2OC(F)F)C1 [Example 8, (trans)-3-(2-(Difluoromethoxy)-5-fluorophenoxy)-N-(1-(5-fluoropyrimidin-2-yl)azetidin-3-yl)cyclobutanecarboxamide]	10 to 79.4
CC(C)(O)C1CC2(CC(NC(=O)[C@H]3C[C@H](Oc4cccc5cccnc45)C3)C2)C1 (mixture of isomers) [Example 170, Racemic (trans)-N-(6-(2-Hydroxypropan-2-yl)spiro[3.3]heptan-2-yl)-3-(quinolin-8-yloxy)cyclobutanecarboxamide]	10 to 79.4
O=C(NC1CN(c2ccccn2)C1)N1CC(Oc2cc(F)cc3scnc23)C1 [Example 132, 3-((6-Fluorobenzo[d]thiazol-4-yl)oxy)-N-(1-(pyridin-2-yl)azetidin-3-yl)azetidine-1-carboxamide]	10 to 79.4
O=C(N[C@H]1CC[C@H](C(O)C2CC2)CC1)[C@H]1C[C@H](Oc2cc(F)ccc2OC(F)F)C1 (mixture of isomers) [Example 27, Racemic (trans)-N-((trans)-4-(Cyclopropyl(hydroxy)methyl)cyclohexyl)-3-(2-(difluoromethoxy)-5-fluorophenoxy)cyclobutanecarboxamide]	10 to 79.4
CC(C)(C)c1nsc(NC(=O)N2CC(Oc3cccc4scnc34)C2)n1 [Example 339]	10 to 79.4
CS(=O)(=O)c1ccc(NC(=O)N2CC(Oc3cccc4scnc34)C2)cc1 [Example 306, 3-(Benzo[d]thiazol-4-yloxy)-N-(4-(methylsulfonyl)phenyl)azetidine-1-carboxamide]	10 to 79.4
O=C(NC1CCS(=O)(=O)C1)[C@H]1C[C@H](Oc2cccc3scnc23)C1 (mixture of isomers) [Example 254, Racemic (trans)-3-(Benzo[d]thiazol-4-yloxy)-N-(1,1-dioxidotetrahydrothiophen-3-yl)cyclobutanecarboxamide]	100 to 1000
CC(N1CCC(NC(=O)N2CC(Oc3cccc4scnc34)C2)CC1)C(F)(F)F (racemic) [Example 86, Racemic 3-(Benzo[d]thiazol-4-yloxy)-N-(1-(1,1,1-trifluoropropan-2-yl)piperidin-4-yl)azetidine-1-carboxamide]	10 to 79.4
O=C1CC(NC(=O)[C@H]2C[C@H](Oc3cc(F)ccc3OC(F)F)C2)c2ccccc2N1 (mixture of isomers) [Example 25, Racemic (trans)-3-(2-(Difluoromethoxy)-5-fluorophenoxy)-N-(2-oxo-1,2,3,4-tetrahydroquinolin-4-yl)cyclobutanecarboxamide]	10 to 79.4
CC(C)(O)c1csc(NC(=O)[C@H]2C[C@H](Oc3cccc4scnc34)C2)n1 [Example 55, (trans)-3-(Benzo[d]thiazol-4-yloxy)-N-(4-(2-hydroxypropan-2-yl)thiazol-2-yl)cyclobutanecarboxamide]	10 to 79.4
O=C1NCC[C@@H]1NC(=O)N1CC(Oc2cccc3scnc23)C1 [Example 99, (S)-3-(Benzo[d]thiazol-4-yloxy)-N-(2-oxopyrrolidin-3-yl)azetidine-1-carboxamide]	100 to 1000
CC(C)(O)C12C3C4C1C1C2C3C41NC(=O)N1CC(Oc2cccc3scnc23)C1 (centres unmarked) [Example 317, 3-(Benzo[d]thiazol-4-yloxy)-N-(4-(2-hydroxypropan-2-yl)cuban-1-yl)azetidine-1-carboxamide]	10 to 79.4
